From ChEMBL document CHEMBL1201862, “PubChem BioAssay data set” (2004)
Activity calls are given as the source filed them.

What was measured:
[1] = target: Genome polyprotein (dengue virus type 2, UniProt P29990); test: Dengue-2 NS5 methyltransferase inhibitors, primary screen, biochemical, confirmation dose response (AID 588689); type: functional
[2] = target: T1, Aminopeptidase N (Plasmodium falciparum FcB1/Columbia, UniProt O96935); test: P. falciparum M1AAP inhibitors, biochemical, fluorogenic H-Leu-NHMec substrate, 1536-well (AID 1445); parameters: species or system Plasmodium falciparum 3D7, 3D7
T1 sequence (O96935 whole entry): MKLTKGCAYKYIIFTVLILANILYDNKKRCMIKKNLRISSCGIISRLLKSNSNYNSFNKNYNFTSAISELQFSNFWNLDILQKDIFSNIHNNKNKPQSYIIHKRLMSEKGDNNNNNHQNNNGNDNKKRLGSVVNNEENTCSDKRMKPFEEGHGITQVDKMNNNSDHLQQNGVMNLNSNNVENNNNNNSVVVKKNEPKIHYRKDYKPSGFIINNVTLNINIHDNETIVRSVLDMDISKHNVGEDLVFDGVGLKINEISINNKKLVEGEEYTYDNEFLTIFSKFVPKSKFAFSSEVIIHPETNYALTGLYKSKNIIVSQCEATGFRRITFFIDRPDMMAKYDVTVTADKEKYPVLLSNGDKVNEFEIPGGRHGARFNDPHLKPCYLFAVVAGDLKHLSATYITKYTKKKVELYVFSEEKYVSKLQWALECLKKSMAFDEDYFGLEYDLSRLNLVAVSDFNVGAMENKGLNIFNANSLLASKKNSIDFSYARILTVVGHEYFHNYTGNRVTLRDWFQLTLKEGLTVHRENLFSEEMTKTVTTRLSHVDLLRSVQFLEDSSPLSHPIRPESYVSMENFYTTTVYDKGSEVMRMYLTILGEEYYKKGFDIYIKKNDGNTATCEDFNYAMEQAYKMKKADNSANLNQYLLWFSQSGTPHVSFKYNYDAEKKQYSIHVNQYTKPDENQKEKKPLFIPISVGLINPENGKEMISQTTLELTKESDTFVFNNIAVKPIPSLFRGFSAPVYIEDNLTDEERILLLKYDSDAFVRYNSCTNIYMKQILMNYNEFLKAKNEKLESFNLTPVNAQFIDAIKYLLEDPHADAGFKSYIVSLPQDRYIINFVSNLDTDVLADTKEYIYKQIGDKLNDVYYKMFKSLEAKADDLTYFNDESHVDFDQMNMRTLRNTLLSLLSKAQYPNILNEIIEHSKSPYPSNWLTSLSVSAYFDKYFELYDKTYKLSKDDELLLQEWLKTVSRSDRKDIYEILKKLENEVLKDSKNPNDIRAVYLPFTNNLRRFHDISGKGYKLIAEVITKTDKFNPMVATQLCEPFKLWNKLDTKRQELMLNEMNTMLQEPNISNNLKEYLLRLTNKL

[3] = target: T2, Histone-lysine N-methyltransferase NSD2 (Homo sapiens, UniProt O96028); type: biochemical
T2 sequence (O96028 whole entry): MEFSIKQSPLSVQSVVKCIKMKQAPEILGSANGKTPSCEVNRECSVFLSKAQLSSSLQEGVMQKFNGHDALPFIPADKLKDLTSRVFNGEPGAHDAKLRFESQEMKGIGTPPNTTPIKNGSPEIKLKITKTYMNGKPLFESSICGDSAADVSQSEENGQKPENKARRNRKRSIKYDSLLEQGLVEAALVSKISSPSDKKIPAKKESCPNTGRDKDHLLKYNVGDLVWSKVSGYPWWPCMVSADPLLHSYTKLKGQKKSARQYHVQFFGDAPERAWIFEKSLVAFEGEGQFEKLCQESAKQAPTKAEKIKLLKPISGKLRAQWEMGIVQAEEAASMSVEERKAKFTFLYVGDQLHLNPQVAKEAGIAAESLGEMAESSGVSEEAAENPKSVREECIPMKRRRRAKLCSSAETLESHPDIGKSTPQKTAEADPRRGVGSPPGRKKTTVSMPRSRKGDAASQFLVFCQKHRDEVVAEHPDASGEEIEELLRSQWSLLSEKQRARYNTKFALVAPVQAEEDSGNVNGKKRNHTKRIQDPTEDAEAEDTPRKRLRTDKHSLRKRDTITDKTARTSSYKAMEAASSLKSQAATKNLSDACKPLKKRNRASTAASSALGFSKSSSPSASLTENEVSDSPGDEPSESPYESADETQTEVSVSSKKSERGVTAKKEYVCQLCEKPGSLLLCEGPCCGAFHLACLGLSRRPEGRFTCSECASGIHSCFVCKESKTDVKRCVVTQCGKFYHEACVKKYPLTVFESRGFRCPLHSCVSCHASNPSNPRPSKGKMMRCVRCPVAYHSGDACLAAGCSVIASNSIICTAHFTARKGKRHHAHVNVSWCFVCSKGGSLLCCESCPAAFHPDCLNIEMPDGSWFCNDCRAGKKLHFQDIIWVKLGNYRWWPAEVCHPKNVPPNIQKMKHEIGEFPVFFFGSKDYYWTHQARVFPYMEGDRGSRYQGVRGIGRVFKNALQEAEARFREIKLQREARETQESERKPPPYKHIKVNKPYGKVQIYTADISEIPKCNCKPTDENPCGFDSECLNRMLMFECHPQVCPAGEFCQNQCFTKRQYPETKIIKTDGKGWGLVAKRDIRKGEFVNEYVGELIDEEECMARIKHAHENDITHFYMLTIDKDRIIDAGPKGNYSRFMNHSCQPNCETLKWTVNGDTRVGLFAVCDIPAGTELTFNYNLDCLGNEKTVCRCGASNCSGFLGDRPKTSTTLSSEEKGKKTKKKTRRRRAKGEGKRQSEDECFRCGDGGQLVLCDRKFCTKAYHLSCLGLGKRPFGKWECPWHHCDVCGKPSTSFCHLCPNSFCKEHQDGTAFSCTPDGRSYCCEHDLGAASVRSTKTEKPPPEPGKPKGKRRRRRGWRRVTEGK

[4] = target: Tyrosine-protein kinase Fer (Homo sapiens, UniProt P16591); type: functional;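 further: FER tested as one member of a kinome panel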
Tyrosine-protein kinase Fer, sequence (P16591 whole entry): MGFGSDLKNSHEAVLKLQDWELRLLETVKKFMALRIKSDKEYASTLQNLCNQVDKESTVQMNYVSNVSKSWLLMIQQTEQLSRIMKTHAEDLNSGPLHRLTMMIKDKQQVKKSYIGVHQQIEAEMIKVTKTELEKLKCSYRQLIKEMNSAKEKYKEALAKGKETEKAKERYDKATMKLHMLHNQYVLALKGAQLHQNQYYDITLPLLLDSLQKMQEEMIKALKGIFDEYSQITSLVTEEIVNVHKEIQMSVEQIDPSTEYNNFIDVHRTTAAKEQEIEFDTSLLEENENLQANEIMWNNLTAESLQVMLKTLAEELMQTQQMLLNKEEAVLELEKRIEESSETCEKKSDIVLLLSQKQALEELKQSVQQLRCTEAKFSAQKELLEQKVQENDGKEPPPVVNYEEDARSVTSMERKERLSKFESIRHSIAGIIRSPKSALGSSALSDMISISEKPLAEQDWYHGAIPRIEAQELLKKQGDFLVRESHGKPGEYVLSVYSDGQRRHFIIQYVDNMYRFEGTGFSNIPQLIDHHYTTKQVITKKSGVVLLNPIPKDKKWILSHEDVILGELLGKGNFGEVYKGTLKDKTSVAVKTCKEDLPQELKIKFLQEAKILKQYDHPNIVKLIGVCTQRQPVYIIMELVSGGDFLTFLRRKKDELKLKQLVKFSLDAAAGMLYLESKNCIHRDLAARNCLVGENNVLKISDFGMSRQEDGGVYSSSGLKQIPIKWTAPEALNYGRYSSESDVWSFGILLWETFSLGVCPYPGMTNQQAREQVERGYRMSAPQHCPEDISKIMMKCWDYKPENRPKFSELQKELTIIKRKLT

[5] = target: STE20-like serine/threonine-protein kinase (Homo sapiens, UniProt Q9H2G2); type: functional
STE20-like serine/threonine-protein kinase, sequence (Q9H2G2 whole entry): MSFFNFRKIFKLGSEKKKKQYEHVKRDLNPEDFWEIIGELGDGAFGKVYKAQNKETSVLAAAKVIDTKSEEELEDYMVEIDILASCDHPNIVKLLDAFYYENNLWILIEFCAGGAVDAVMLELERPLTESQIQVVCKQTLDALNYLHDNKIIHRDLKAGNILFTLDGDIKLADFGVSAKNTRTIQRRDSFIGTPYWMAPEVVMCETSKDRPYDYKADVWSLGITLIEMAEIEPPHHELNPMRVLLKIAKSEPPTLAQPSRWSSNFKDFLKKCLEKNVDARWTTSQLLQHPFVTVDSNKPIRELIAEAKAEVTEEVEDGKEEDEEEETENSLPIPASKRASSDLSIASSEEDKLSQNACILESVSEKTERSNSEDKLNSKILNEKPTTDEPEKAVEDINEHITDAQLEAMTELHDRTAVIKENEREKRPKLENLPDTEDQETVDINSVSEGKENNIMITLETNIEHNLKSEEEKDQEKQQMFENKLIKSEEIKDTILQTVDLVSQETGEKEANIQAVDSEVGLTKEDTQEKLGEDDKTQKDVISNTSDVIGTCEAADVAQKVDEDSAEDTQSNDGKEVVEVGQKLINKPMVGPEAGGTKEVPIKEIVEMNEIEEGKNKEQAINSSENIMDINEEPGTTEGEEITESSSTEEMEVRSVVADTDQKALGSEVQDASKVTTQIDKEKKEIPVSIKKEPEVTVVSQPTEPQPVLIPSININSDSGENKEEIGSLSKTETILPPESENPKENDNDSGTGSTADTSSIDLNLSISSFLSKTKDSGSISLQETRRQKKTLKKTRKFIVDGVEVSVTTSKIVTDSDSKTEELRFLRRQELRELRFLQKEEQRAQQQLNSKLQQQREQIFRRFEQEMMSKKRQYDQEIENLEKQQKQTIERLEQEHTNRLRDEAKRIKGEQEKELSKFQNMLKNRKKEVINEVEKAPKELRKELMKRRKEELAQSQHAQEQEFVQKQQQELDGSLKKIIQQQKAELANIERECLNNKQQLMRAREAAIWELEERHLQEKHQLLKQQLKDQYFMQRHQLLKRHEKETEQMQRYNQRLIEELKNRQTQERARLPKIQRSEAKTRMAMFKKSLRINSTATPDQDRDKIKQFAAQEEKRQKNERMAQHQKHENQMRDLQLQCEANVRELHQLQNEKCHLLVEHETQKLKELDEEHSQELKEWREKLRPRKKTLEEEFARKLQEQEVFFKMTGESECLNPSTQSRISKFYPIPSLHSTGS

[6] = target: Serine/threonine-protein kinase BRSK1 (Homo sapiens, UniProt Q8TDC3); type: functional;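 further: measured within a kinome-wide kinase panel, with the target listed as KIAA1811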
Serine/threonine-protein kinase BRSK1, sequence (Q8TDC3 whole entry): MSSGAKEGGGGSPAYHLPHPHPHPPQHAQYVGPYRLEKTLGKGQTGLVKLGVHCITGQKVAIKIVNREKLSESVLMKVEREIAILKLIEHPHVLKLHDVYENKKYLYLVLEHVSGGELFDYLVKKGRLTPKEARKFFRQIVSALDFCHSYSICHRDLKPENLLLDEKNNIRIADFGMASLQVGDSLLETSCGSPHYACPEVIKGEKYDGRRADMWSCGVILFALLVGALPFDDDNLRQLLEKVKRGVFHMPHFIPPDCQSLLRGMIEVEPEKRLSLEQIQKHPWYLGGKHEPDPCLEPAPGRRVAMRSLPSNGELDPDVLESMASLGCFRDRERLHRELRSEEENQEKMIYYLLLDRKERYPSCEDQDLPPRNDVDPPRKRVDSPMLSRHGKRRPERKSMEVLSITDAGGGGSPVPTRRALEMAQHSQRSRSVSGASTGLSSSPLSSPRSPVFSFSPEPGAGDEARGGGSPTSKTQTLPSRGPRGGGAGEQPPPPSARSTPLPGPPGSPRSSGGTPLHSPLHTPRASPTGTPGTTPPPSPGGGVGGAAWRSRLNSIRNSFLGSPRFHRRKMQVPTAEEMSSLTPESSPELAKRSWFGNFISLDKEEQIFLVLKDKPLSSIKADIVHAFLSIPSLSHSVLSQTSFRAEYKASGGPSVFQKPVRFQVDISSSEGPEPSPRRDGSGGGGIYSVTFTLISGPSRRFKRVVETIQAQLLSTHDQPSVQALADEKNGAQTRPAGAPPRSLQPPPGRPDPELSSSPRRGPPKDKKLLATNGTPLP

[7] = target: MAP kinase-activated protein kinase 2 (Homo sapiens, UniProt P49137); type: functional;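 further: measured as one member of a kinome-wide kinase panel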
MAP kinase-activated protein kinase 2, sequence (P49137 whole entry): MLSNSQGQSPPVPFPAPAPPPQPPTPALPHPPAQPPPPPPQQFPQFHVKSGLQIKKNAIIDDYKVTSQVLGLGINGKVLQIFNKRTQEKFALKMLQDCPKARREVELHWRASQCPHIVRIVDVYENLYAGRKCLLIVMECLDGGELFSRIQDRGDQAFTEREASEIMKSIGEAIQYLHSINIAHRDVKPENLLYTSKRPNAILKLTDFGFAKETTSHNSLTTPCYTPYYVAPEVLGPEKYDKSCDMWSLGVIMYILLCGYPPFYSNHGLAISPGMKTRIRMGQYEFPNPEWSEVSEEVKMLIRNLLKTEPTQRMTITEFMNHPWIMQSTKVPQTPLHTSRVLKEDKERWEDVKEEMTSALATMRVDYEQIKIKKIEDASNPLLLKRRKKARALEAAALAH

[8] = target: Tyrosine-protein kinase Srms (Homo sapiens, UniProt Q9H3Y6); type: functional;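 further: SRMS measured as one member of a kinome-wide kinase profiling panel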
Tyrosine-protein kinase Srms, sequence (Q9H3Y6 whole entry): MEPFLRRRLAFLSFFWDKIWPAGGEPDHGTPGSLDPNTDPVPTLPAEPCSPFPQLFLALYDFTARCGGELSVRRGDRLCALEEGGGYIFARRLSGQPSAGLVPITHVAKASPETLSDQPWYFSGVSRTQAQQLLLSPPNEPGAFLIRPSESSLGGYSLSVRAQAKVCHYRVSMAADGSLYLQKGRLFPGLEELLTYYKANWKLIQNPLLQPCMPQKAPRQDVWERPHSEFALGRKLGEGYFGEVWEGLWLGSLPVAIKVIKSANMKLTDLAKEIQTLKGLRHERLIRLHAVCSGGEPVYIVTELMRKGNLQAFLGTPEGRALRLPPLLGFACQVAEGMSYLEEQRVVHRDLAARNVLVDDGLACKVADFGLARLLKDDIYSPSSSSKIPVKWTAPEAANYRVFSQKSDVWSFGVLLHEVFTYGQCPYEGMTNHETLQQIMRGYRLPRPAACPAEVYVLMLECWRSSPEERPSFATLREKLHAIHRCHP

Genome polyprotein, sequence (P29990 2492-3391 limits assumed): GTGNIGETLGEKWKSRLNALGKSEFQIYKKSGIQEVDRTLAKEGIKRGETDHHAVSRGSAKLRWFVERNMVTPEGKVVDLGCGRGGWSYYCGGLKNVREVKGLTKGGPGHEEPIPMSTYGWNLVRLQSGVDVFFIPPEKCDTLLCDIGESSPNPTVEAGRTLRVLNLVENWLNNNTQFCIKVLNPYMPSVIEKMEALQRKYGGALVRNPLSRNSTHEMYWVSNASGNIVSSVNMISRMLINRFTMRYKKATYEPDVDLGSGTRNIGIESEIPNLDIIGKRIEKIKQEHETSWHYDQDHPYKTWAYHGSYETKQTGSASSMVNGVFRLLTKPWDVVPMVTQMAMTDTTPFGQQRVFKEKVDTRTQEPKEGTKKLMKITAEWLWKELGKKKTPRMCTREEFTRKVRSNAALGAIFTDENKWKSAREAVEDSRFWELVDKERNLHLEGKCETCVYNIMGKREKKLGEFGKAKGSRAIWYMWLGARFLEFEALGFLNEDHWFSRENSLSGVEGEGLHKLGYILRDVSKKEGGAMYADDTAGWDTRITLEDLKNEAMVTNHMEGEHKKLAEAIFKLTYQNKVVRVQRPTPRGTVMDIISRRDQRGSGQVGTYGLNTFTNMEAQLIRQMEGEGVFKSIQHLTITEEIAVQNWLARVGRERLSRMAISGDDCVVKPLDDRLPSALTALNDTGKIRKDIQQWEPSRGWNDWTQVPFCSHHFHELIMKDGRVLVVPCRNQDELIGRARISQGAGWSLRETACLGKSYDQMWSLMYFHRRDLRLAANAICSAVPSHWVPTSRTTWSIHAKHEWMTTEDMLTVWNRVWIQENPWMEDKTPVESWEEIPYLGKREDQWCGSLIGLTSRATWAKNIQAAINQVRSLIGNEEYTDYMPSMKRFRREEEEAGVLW

Compound	IC50 [1]	IC50 [2]	AC50 [3]	Ki [4]	Ki [5]	Ki [6]	Ki [7]	Ki [8]
CC(/C=C1\SC(=S)N(NS(=O)(=O)c2ccc(C)cc2)C1=O)=C\c1ccccc1	27.1 µM (active)	64 µM (active)	9.98 µM (active)	–	–	–	–	–
CN1CCC(c2c(O)cc(O)c3c(=O)cc(-c4ccccc4Cl)oc23)C(O)C1 (stereo not drawn)	–	–	–	> 1.58 µM (inactive)	> 10 µM (inactive)	> 10 µM (inactive)	> 7.94 µM (inactive)	> 1.58 µM (inactive)
